Measured values published in PubChem BioAssay AID1963849 (Molecular Pharmacology Branch, DTP, NCI, 2024).

Tested on: 299254-011-R-J1-PDC complex spheroid viability
Assay: Anticancer human tumor 299254-011-R-J1-PDC patient-derived melanoma cell line growth inhibition [POLQ]
Conditions: for IC50: curve of first compound; for viability, T/C: stronger effect = lower value
Method in brief: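 Growth inhibition in 3D: complex spheroids (tumor PDC, HUVEC, MSC) treated with POLQ inhibitor combinations; where Cmax unknown, highest tested concentration 10 microM, except SN-38 at 1 microM.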

[1] = second compound 0.0316 µM, first compound 0.0316 µM
[2] = second compound 0.0316 µM, first compound 0.1 µM
[3] = second compound 0.0316 µM, first compound 0.316 µM
[4] = second compound 0.0316 µM, first compound 1 µM
[5] = second compound 0.0316 µM, first compound 3.16 µM
[6] = second compound 0.0316 µM, first compound 10 µM
[7] = second compound 0.1 µM, first compound 0.0316 µM
[8] = second compound 0.1 µM, first compound 0.1 µM
[9] = second compound 0.1 µM, first compound 0.316 µM
[10] = second compound 0.1 µM, first compound 1 µM
[11] = second compound 0.1 µM, first compound 3.16 µM
[12] = second compound 0.1 µM, first compound 10 µM
[13] = second compound 0.316 µM, first compound 0.0316 µM
[14] = second compound 0.316 µM, first compound 0.1 µM
[15] = second compound 0.316 µM, first compound 0.316 µM
[16] = second compound 0.316 µM, first compound 1 µM
[17] = second compound 0.316 µM, first compound 3.16 µM
[18] = second compound 0.316 µM, first compound 10 µM
[19] = second compound 1 µM, first compound 0.0316 µM
[20] = second compound 1 µM, first compound 0.1 µM
[21] = second compound 1 µM, first compound 0.316 µM
[22] = second compound 1 µM, first compound 1 µM
[23] = second compound 1 µM, first compound 3.16 µM
[24] = second compound 1 µM, first compound 10 µM
[25] = second compound 3.16 µM, first compound 0.0316 µM
[26] = second compound 3.16 µM, first compound 0.1 µM
[27] = second compound 3.16 µM, first compound 0.316 µM
[28] = second compound 3.16 µM, first compound 1 µM
[29] = second compound 3.16 µM, first compound 3.16 µM
[30] = second compound 3.16 µM, first compound 10 µM
[31] = second compound 10 µM, first compound 0.0316 µM
[32] = second compound 10 µM, first compound 0.1 µM
[33] = second compound 10 µM, first compound 0.316 µM
[34] = second compound 10 µM, first compound 1 µM
[35] = second compound 10 µM, first compound 3.16 µM
[36] = second compound 10 µM, first compound 10 µM
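Note: spheroids exposed to drugs for one week before measurement.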
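Throughout, for viability, T/C: percent viability relative to DMSO vehicle control taken as 100%.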

## CCc1cc2c(N3CCc4c(cc(Cn5ccnc5)cc4-c4cn(C)nc4C(F)(F)F)C3=O)cc(C)nc2c(OC)n1 + Nc1ccc(C#CCN(C(=O)Cc2ncc(C(F)(F)F)cc2C(F)(F)F)c2ccc(F)cc2)nn1
Second compound 0.0316 µM
  IC50: > 10 µM
Second compound 0.1 µM
  IC50: > 10 µM
Second compound 0.316 µM
  IC50: > 10 µM
Second compound 1 µM
  IC50: > 10 µM
Second compound 3.16 µM
  IC50: > 10 µM
Second compound 10 µM
  IC50: > 10 µM
[1]
  viability, T/C: 94.3%
[2]
  viability, T/C: 99.2%
[3]
  viability, T/C: 107%
[4]
  viability, T/C: 98.5%
[5]
  viability, T/C: 86.8%
[6]
  viability, T/C: 58.7%
[7]
  viability, T/C: 90.3%
[8]
  viability, T/C: 103%
[9]
  viability, T/C: 117%
[10]
  viability, T/C: 101%
[11]
  viability, T/C: 92.9%
[12]
  viability, T/C: 76.1%
[13]
  viability, T/C: 114%
[14]
  viability, T/C: 110%
[15]
  viability, T/C: 100%
[16]
  viability, T/C: 94.4%
[17]
  viability, T/C: 95%
[18]
  viability, T/C: 63.1%
[19]
  viability, T/C: 107%
[20]
  viability, T/C: 95.7%
[21]
  viability, T/C: 111%
[22]
  viability, T/C: 101%
[23]
  viability, T/C: 89.4%
[24]
  viability, T/C: 70.9%
[25]
  viability, T/C: 116%
[26]
  viability, T/C: 106%
[27]
  viability, T/C: 91.7%
[28]
  viability, T/C: 86.2%
[29]
  viability, T/C: 90.6%
[30]
  viability, T/C: 55.1%
[31]
  viability, T/C: 98.7%
[32]
  viability, T/C: 96.5%
[33]
  viability, T/C: 90.9%
[34]
  viability, T/C: 85.3%
[35]
  viability, T/C: 68%
[36]
  viability, T/C: 61.1%

## CCc1cc2c(N3CCc4c(cc(Cn5ccnc5)cc4-c4cn(C)nc4C(F)(F)F)C3=O)ccnc2c(OC)n1 + Nc1ccc(C#CCN(C(=O)Cc2ncc(C(F)(F)F)cc2C(F)(F)F)c2ccc(F)cc2)nn1
Second compound 0.0316 µM
  IC50: > 10 µM
Second compound 0.1 µM
  IC50: > 10 µM
Second compound 0.316 µM
  IC50: > 10 µM
Second compound 1 µM
  IC50: > 10 µM
Second compound 3.16 µM
  IC50: > 10 µM
Second compound 10 µM
  IC50: > 10 µM
[1]
  viability, T/C: 118%
[2]
  viability, T/C: 99.3%
[3]
  viability, T/C: 93.6%
[4]
  viability, T/C: 115%
[5]
  viability, T/C: 109%
[6]
  viability, T/C: 74.3%
[7]
  viability, T/C: 101%
[8]
  viability, T/C: 107%
[9]
  viability, T/C: 91.4%
[10]
  viability, T/C: 99.2%
[11]
  viability, T/C: 89.2%
[12]
  viability, T/C: 73.6%
[13]
  viability, T/C: 126%
[14]
  viability, T/C: 100%
[15]
  viability, T/C: 107%
[16]
  viability, T/C: 98.9%
[17]
  viability, T/C: 97.2%
[18]
  viability, T/C: 79.5%
[19]
  viability, T/C: 102%
[20]
  viability, T/C: 114%
[21]
  viability, T/C: 103%
[22]
  viability, T/C: 101%
[23]
  viability, T/C: 89%
[24]
  viability, T/C: 73.5%
[25]
  viability, T/C: 96.9%
[26]
  viability, T/C: 97.2%
[27]
  viability, T/C: 89.5%
[28]
  viability, T/C: 100%
[29]
  viability, T/C: 84.5%
[30]
  viability, T/C: 76.5%
[31]
  viability, T/C: 90.4%
[32]
  viability, T/C: 103%
[33]
  viability, T/C: 87%
[34]
  viability, T/C: 80.6%
[35]
  viability, T/C: 84.8%
[36]
  viability, T/C: 62.2%
